Experimental data reported in ChEMBL document CHEMBL3046566, “In vitro antimycobacterial activity of novel N-(4-(substituted phenyl amino)-6-(pyridin-2-ylamino)-1,3,5-triazin-2-yl)isonicotinohydrazide” (Med Chem Res, 2011).
Values after ≈ are worked out from the molar mass of the structure shown.

Columns and labels:
[1] = test system: Mycobacterium tuberculosis; experiment: Growth inhibition of Mycobacterium tuberculosis H37Rv ATCC 27294 at 0.7110 uM by radiometric analysis; assay type: functional; conditions: read-out: GI
[2] = test system: Mycobacterium tuberculosis; experiment: Antimycobacterial activity against Mycobacterium tuberculosis H37Rv ATCC 27294 by microdilution alamar blue assay; assay type: functional
[3] = test system: Mycobacterium tuberculosis; experiment: Growth inhibition of Mycobacterium tuberculosis H37Rv ATCC 27294 at 0.0418 uM by radiometric analysis; assay type: functional; conditions: read-out: GI
Vero = experiment: Cytotoxicity against Chlorocebus aethiops (African green monkey) Vero cells up to 62.5 ug/ml after 72 hr by MTT assay; assay type: cell-based; conditions: chlorocebus sabaeus
[4] = test system: Mycobacterium tuberculosis; experiment: Growth inhibition of Mycobacterium tuberculosis H37Rv ATCC 27294 at 0.6890 uM by radiometric analysis; assay type: functional; conditions: read-out: GI
[5] = test system: Mycobacterium tuberculosis; experiment: Growth inhibition of Mycobacterium tuberculosis H37Rv ATCC 27294 at 0.1211 uM by radiometric analysis; assay type: functional; conditions: read-out: GI
[6] = test system: Mycobacterium tuberculosis; experiment: Growth inhibition of Mycobacterium tuberculosis H37Rv ATCC 27294 at 0.0250 uM by radiometric analysis; assay type: functional; conditions: read-out: GI
[7] = test system: Mycobacterium tuberculosis; experiment: Growth inhibition of Mycobacterium tuberculosis H37Rv ATCC 27294 at 0.0211 uM by radiometric analysis; assay type: functional; conditions: read-out: GI
[8] = test system: Mycobacterium tuberculosis; experiment: Growth inhibition of Mycobacterium tuberculosis H37Rv ATCC 27294 at 0.1218 uM by radiometric analysis; assay type: functional; conditions: read-out: GI
[9] = test system: Mycobacterium tuberculosis; experiment: Growth inhibition of Mycobacterium tuberculosis H37Rv ATCC 27294 at 0.0677 uM by radiometric analysis; assay type: functional; conditions: read-out: GI
[10] = test system: Mycobacterium tuberculosis; experiment: Growth inhibition of Mycobacterium tuberculosis H37Rv ATCC 27294 at 0.0311 uM by radiometric analysis; assay type: functional; conditions: read-out: GI
[11] = test system: Mycobacterium tuberculosis; experiment: Growth inhibition of Mycobacterium tuberculosis H37Rv ATCC 27294 at 0.1110 uM by radiometric analysis; assay type: functional; conditions: read-out: GI
[12] = test system: Mycobacterium tuberculosis; experiment: Growth inhibition of Mycobacterium tuberculosis H37Rv ATCC 27294 at 0.0550 uM by radiometric analysis; assay type: functional; conditions: read-out: GI
[13] = test system: Mycobacterium tuberculosis; experiment: Growth inhibition of Mycobacterium tuberculosis H37Rv ATCC 27294 at 0.1277 uM by radiometric analysis; assay type: functional; conditions: read-out: GI
[14] = test system: Mycobacterium tuberculosis; experiment: Growth inhibition of Mycobacterium tuberculosis H37Rv ATCC 27294 at 0.0614 uM by radiometric analysis; assay type: functional; conditions: read-out: GI
[15] = test system: Mycobacterium tuberculosis; experiment: Growth inhibition of Mycobacterium tuberculosis H37Rv ATCC 27294 at 0.1127 uM by radiometric analysis; assay type: functional; conditions: read-out: GI
[16] = test system: Mycobacterium tuberculosis; experiment: Growth inhibition of Mycobacterium tuberculosis H37Rv ATCC 27294 at 0.1109 uM by radiometric analysis; assay type: functional; conditions: read-out: GI
[17] = test system: Mycobacterium tuberculosis; experiment: Growth inhibition of Mycobacterium tuberculosis H37Rv ATCC 27294 at 0.1214 uM by radiometric analysis; assay type: functional; conditions: read-out: GI
[18] = test system: Mycobacterium tuberculosis; experiment: Growth inhibition of Mycobacterium tuberculosis H37Rv ATCC 27294 at 0.1229 uM by radiometric analysis; assay type: functional; conditions: read-out: GI
[19] = test system: Mycobacterium tuberculosis; experiment: Growth inhibition of Mycobacterium tuberculosis H37Rv ATCC 27294 at 0.0650 uM by radiometric analysis; assay type: functional; conditions: read-out: GI

With `O=C(NNc1nc(Nc2ccccc2)nc(Nc2ccccn2)n1)c1ccncc1` the inhibition of growth at 0.711 µM [1] was 71%.

With `NS(=O)(=O)c1ccc(Nc2nc(NNC(=O)c3ccncc3)nc(Nc3ccccn3)n2)cc1` the MIC [2] was 6 mg/L (≈ 12.5 µM), the inhibition of growth at 0.0418 µM [3] was 90% and the Activity (Vero) was “Non-toxic”.

Molecule `COc1cccc(Nc2nc(NNC(=O)c3ccncc3)nc(Nc3ccccn3)n2)c1` has an inhibition of growth at 0.689 µM [4] of 83%.

In the case of `O=C(NNc1nc(Nc2ccc([N+](=O)[O-])cc2)nc(Nc2ccccn2)n1)c1ccncc1`, the inhibition of growth at 0.1211 µM [5] is reported as 69%.

For `O=C(NNc1nc(Nc2ccc(Cl)cc2)nc(Nc2ccccn2)n1)c1ccncc1`, the inhibition of growth at 0.025 µM [6] was 94% and the MIC [2] was 5.91 mg/L (≈ 13.6 µM).

`COc1ccc(Nc2nc(NNC(=O)c3ccncc3)nc(Nc3ccccn3)n2)cc1` was tested, and the inhibition of growth at 0.0211 µM [7] was 94%, the MIC [2] was 4.11 mg/L (≈ 9.57 µM) and the Activity (Vero) was “Non-toxic”.

`Cc1cccc(Nc2nc(NNC(=O)c3ccncc3)nc(Nc3ccccn3)n2)c1` was tested, and the inhibition of growth at 0.1218 µM [8] was 74%.

With `COc1ccccc1Nc1nc(NNC(=O)c2ccncc2)nc(Nc2ccccn2)n1` the inhibition of growth at 0.0677 µM [9] was 81%.

With `O=C(NNc1nc(Nc2ccccn2)nc(Nc2c(Cl)cccc2Cl)n1)c1ccncc1` the MIC [2] was 4.69 mg/L (≈ 10 µM), the inhibition of growth at 0.0311 µM [10] was 91% and the Activity (Vero) was “Non-toxic”.

`Cc1ccccc1Nc1nc(NNC(=O)c2ccncc2)nc(Nc2ccccn2)n1` showed an inhibition of growth at 0.111 µM [11] of 71%.

`O=C(NNc1nc(Nc2cccc(Cl)c2)nc(Nc2ccccn2)n1)c1ccncc1` gave an inhibition of growth at 0.055 µM [12] of 82%.

With `O=C(NNc1nc(Nc2ccc(O)cc2)nc(Nc2ccccn2)n1)c1ccncc1` the inhibition of growth at 0.1277 µM [13] was 77%.

For `O=C(NNc1nc(Nc2ccccn2)nc(Nc2ccc(Cl)cc2Cl)n1)c1ccncc1`, the inhibition of growth at 0.0614 µM [14] was 92%, the MIC [2] was 5.92 mg/L (≈ 12.6 µM) and the Activity (Vero) was “Non-toxic”.

Work on `Cc1ccc(Nc2nc(NNC(=O)c3ccncc3)nc(Nc3ccccn3)n2)cc1` yielded an inhibition of growth at 0.1127 µM [15] of 77%.

`O=C(NNc1nc(Nc2cccc([N+](=O)[O-])c2)nc(Nc2ccccn2)n1)c1ccncc1` gave an inhibition of growth at 0.1109 µM [16] of 72%.

Work on `O=C(NNc1nc(Nc2ccccn2)nc(Nc2ccccc2[N+](=O)[O-])n1)c1ccncc1` yielded an inhibition of growth at 0.1214 µM [17] of 67%.

`O=C(NNc1nc(Nc2ccccn2)nc(Nc2ccccc2O)n1)c1ccncc1` gave an inhibition of growth at 0.1229 µM [18] of 71%.

With `O=C(NNc1nc(Nc2ccccn2)nc(Nc2ccccc2Cl)n1)c1ccncc1` the inhibition of growth at 0.065 µM [19] was 80%.
